Measured values: patent US8110368B1, “Synuclein gamma as a biomarker of obesity and obesity-related disorders” (The United States of America Department of Agriculture, as …, priority 2008, dated 2012)

Tests used:
[1] = test system: leptin mRNA in 3T3-L1 adipocytes; assay: leptin mRNA expression in 3T3-L1 adipocytes treated with PPARγ agonist (quantitative real-time PCR); assay type: cell-based, murine; conditions: fully-differentiated 3T3-L1 adipocytes, 18 hr treatment, compared with the γ-synuclein mRNA decrease
Protocol: 3T3-L1 Adipocyte Differentiation & PPARγAgonist Studies. Results herein were generated using the samples described in our recently-published studies (1). Briefly, murine 3T3-L1 fibroblasts (ATCC, Manassas, Va.) grown to between 5-9 passages were induced to differentiate into adipocytes using a protocol similar to Farmer et al. (i.e., (22)). Two-day-confluent cells grown in high-glucose (25 mM) DMEM and 10% FBS (37° C., 5% CO2) in 6-well rat tail collagen-coated plates were exposed to differentiation medium containing 10 μg/ml bovine insulin (˜1.6 μM), 1 μM dexamethasone, and 0.5 mM 3-isobutyl-1-methylxanthine (IBMX) for 2 days. […]
Gene Expression Analyses. RNA abundance of γ-synuclein and of other genes of interest were measured in 3T3-L1 adipocyte samples using quantitative real-time PCR, as described in detail previously (1). […] Mouse and human tissue panel samples, and samples derived from non-obese and obese WAT (24) were assayed using a two-step process with preparation of cDNA from total RNA, followed by quantitative real-time PCR. […] Amplification cycle number (Ct) of 18S for each sample was determined using commercial 18S primers and probe (ABI) to correct for template loading differences across all target genes (ΔCt method: ΔCt=sample Ct−18S Ct), and expression values were determined relative to control transcript levels using a mathematical formula as previously described (1). […]

[2] = test system: γ-synuclein mRNA in 3T3-L1 adipocytes; assay: γ-synuclein mRNA expression in 3T3-L1 adipocytes treated with PPARγ agonist (quantitative real-time PCR); assay type: cell-based, murine
Protocol: 3T3-L1 Adipocyte Differentiation & PPARγAgonist Studies. Results herein were generated using the samples described in our recently-published studies (1). Briefly, murine 3T3-L1 fibroblasts (ATCC, Manassas, Va.) grown to between 5-9 passages were induced to differentiate into adipocytes using a protocol similar to Farmer et al. (i.e., (22)). Two-day-confluent cells grown in high-glucose (25 mM) DMEM and 10% FBS (37° C., 5% CO2) in 6-well rat tail collagen-coated plates were exposed to differentiation medium containing 10 μg/ml bovine insulin (˜1.6 μM), 1 μM dexamethasone, and 0.5 mM 3-isobutyl-1-methylxanthine (IBMX) for 2 days. Cells were grown thereafter in maintenance medium (DMEM/10% FBS+2.5 μg/mL insulin). Cell culture media was replaced daily. Proof-of-principle studies tested the ability of the potent non-thiazoladinedione PPARγ agonist GW1929 (23) to regulate γ-synuclein gene expression at various points in the 3T3-L1 adipocyte differentiation and maturation process, as indicated. For these experiments, cells were cultured for the times and doses indicated in media containing vehicle (DMSO; 0.1% by vol.) or GW1929 (0.1% by vol.). RNA was prepared from 3T3-L1 adipocytes using Trizol-based methods for cell culture samples (Ambion, Austin, Tex.). RNA abundance and integrity were checked using a Nanoprop® ND-1000 Spectrophotometer (Nanoprop Technologies, Wilmington, Del.) and an Agilent 2100 bioanalyzer (Agilent, Foster City, Calif.) per manufacturer's instructions.
Gene Expression Analyses. RNA abundance of γ-synuclein and of other genes of interest were measured in 3T3-L1 adipocyte samples using quantitative real-time PCR, as described in detail previously (1). These assays utilized gene-specific TaqMan primers and FAM-MGB labeled probes (Assays-on-Demand®, Applied Biosystems Inc., Foster City, Calif.) and were run in duplicate or triplicate for each sample using an ABI 7900HT instrument. Primers/probe ABI identifiers for human reagents were γ-synuclein (Hs00268306 ml), leptin (Hs00174877 ml), and 11B-hydroxysteroid dehydrogenase (11β-HSD-1; Hs00194153 ml), and for mouse, γ-synuclein (Mm00488345 ml) and others described previously (1). Mouse and human tissue panel samples, and samples derived from non-obese and obese WAT (24) were assayed using a two-step process with preparation of cDNA from total RNA, followed by quantitative real-time PCR. […] Amplification cycle number (Ct) of 18S for each sample was determined using commercial 18S primers and probe (ABI) to correct for template loading differences across all target genes (ΔCt method: ΔCt=sample Ct−18S Ct), and expression values were determined relative to control transcript levels using a mathematical formula as previously described (1). […]

Row | Compound | leptin mRNA pattern in response to short-term treatment [1] | decrease of γ-synuclein mRNA abundance ([2]; fully-differentiated 3T3-L1 adipocytes, 18 hr treatment, dose-response, vs vehicle (DMSO)) | γ-synuclein expression (direction of change) ([2]; mature fat cells, single dose, short-term (18 hr) exposure) | γ-synuclein mRNA (direction of change) ([2]; pre-adipocytes and immature adipocytes, single dose, short-term (18 hr) exposure) | effective doses required to decrease γ-synuclein and leptin mRNA, compared to GW1929 ([2]; 3T3-L1 adipocytes, data not shown)
1 | CN(CCOc1ccc(C[C@H](Nc2ccccc2C(=O)c2ccccc2)C(=O)O)cc1)c1ccccn1 [GW1929] | paralleled qualitatively | ≤ 50% | decrease | increased | –
2 | Cc1c(C)c2c(c(C)c1O)CCC(C)(COc1ccc(CC3SC(=O)NC3=O)cc1)O2 (centres unmarked) [troglitazone] | – | – | – | – | at least 5 fold
